Data published in article PMC4072806, “Defining Immune Engagement Thresholds for In Vivo Control of Virus-Driven Lymphoproliferation” (PLoS Pathogens, 2014).
Where two headings read alike, the source gives them in different places. No end group written: not given here.

Tests used:
H2K^b = molecular target: T1, H2K^b (Mus musculus, UniProt P01901); type: cell-based
T1 construct: […]; endogenous in cells; host or cells: RMA/S cells (TAP-deficient)
Experimental: H2K^b stabilization was determined with TAP-deficient RMA/S cells. These were incubated overnight at 26°C to promote the export of empty H2K^b complexes, then loaded with graded concentrations of OVA or APL peptides (Thermo Scientific) for 2 h at 26°C and subsequently transferred to 37°C for 2 h to destabilize empty MHC molecules. The cells were then washed twice, stained with anti-H2K^b (AF6-88.5.5.3, eBioscience), and analysed on a LSR Fortessa (BD Biosciences). Mean fluorescence intensities were determined with FlowJo (Tree Star). To measure the ex vivo stimulation of naïve OT-I T cells by OVA and APLs, CD8^+ T cells from the spleens of naïve OT-I mice were purified by negative selection (CD8^+ T cell isolation kit, Miltenyi Biotech); for equivalent peptide/MHC class I numbers, irradiated (7500 rads) RMA/S cells were loaded with different peptides at 26°C, then incubated at 37°C; and 5×10^4 OT-I T cells were cultured with 2.5×10^4 RMA/S cells for 72 h at 37°C. IFNγ levels in culture supernatants were measured by ELISA (DuoSet ELISA development kit, R&D Systems). The data were fitted to sigmoidal dose-response curves and EC50 values calculated using GraphPad Prism.

[1] = system: OT-I CTL (H2K^b-OVA-specific TcR of OT-I); experiment: Functional avidity of OT-I CTL by IFNγ production (ELISA); type: cell-based, mouse; settings: Figure 1C, naive OT-I CD8+ T cells with peptide-loaded irradiated RMA/S cells, 72 h 37°C, repeated in duplicates 4 times, read-out: OT-I sensitivity EC50
[2] = molecular target: H2K^b (MHC class I, empty complexes on TAP-deficient RMA/S cells) (mouse (endogenous in RMA/S))
[3] = Figure 1B, TAP-deficient RMA/S cells, peptide 2 h 26°C then 2 h 37°C, anti-H2K^b FACS MFI, experiment repeated 3 times, read-out: EC50 (H2K^b stabilization)

Row | Compound | EC50 [1] [nM] | EC50 (H2K^b; [3]) [nM] | further results
1 | CC[C@H](C)[C@H](NC(=O)[C@@H](NC(=O)[C@@H](N)CO)[C@@H](C)CC)C(=O)N[C@@H](CC(N)=O)C(=O)N[C@@H](Cc1ccccc1)C(=O)N[C@@H](CCC(=O)O)C(=O)N[C@@H](CCCCN)C(=O)N[C@@H](CC(C)C)C(=O)O [OVA, reference compound] | 0.0182 |  | EC50 (H2K^b; RMA/S cells, read-out: concentration giving 50% maximal H2K^b stabilization (EC50)): 40 nM
2 | A8 altered peptide ligand of OVA (mutated anchor residue) |  |  | fold more peptide than E1 for equivalent H2K^b stabilization [2]: 10 fold
3 | E1 altered peptide ligand of OVA (EIINFEKL) |  |  | fold more peptide than OVA for equivalent H2K^b stabilization [2]: 6 fold
4 | EIINFEKL [E1] | 7780 | 235 | 
5 | OVA peptide, amino acid residues 257-264 of ovalbumin (SIINFEKL) |  |  | EC50 [2]: 40 nM
6 | SIIGFEKL [G4] | 3610 | 34 | 
7 | SIINFEKA [A8] | 10300 | 2470 | 
8 | SIIQFEKL [Q4] | 0.243 | 30 | 
9 | SIIRFEKL [R4] |  | 56 | 
10 | SIIVFEKL [V4] | 68.5 | 63 | 
